{"source": "patent US11427808B2", "about": "“Method for serum-free culture of chondrocytes and serum-free culture medium” (Regenesis Science Co., Ltd., priority 2014, dated 2022)", "tested_on": "primary human chondrocytes", "test": "serum-free culture of human chondrocytes, cell proliferation", "assay_type": "cell-based", "settings": "for proliferation of cultured chondrocytes (number of cells): 4th, 7th, 14th and 21st day", "experimental": "Primary human chondrocytes were isolated from a fresh sample of articular cartilage, and the sample was fractionated. The obtained fractionated sample was then immersed in a 0.1% to 0.3% collagenase solution, and subjected to enzymatic digestion at 37° C. for 4 to 5 hours. The obtained cells were collected by centrifugation for 5 minutes at 1,200 rpm. A mixture obtained by adding 100 ng/mL FGF, 0.5 μM SAG, 400 ng/mL HC, 5 ng/mL IGF, and 5 μg/mL insulin to DMEM medium was used as a culture medium. The cultured cells previously obtained were seeded at a density of 1000 cells/cm^2 and cultured in an environment of 37° C. and 5% CO2. A mixture obtained by adding 100 ng/mL FGF2, 0.5 μM SAG, 400 ng/mL HC, 5 ng/mL IGF and 5 μg/mL insulin to DMEM medium was used as a culture medium for subculture. The cultured cells in Example 1 were seeded at a density of 10000 cells/cm^2 and cultured in an environment of 37° C. and 5% CO2. In order to examine the optimum concentration of SAG added to a culture medium, the concentration of SAG in a serum-free culture medium was changed to 0.05 uM, 0.01 uM or 0.5 uM, and an influence on proliferation of cultured chondrocytes was examined. Specifically, chondrocytes prepared in the same procedure as in Example 1 were seeded at a density of 10000 cells/well, and the number of cells on the 4th, 7th, 14th and 21st day after seeding was measured. Because SAG is a very expensive reagent, it is preferred that SAG be able to be used at as low concentration as possible. […] Specifically, the concentration of SAG in a serum-free culture medium to which ITS had been added was changed to 0.01 uM, 0.05 uM, 0.1 uM or 0.5 uM, and the cultured chondrocytes were cultured, and the number of cells on the 4th, 7th, 14th and 21st day after seeding was measured. In order to further examine the effect of ITS and SAG on an increase in chondrocytes, an increase in chondrocytes was examined in treated sites to which both ITS and SAG were added (ITS+ 0.01 uM SAG, ITS+ 0.1 uM SAG), a treated site to which ITS was added alone (ITS+ SAG−), and a treated site to which ITS and SAG were not added (ITS− SAG−).", "data": [{"molecule": "O=C(O)c1ccccc1C(=O)Nc1ccc(-c2ccccc2)cc1", "note": "[kartogenin, 2-[(biphenyl-4-yl)carbamoyl] benzoic acid]", "values": [{"measurement": "effect on proliferation of chondrocytes", "setting": "ITS+ 1 uM Kartogenin", "value": "the effect on proliferation of chondrocytes was observed"}, {"measurement": "proliferation of chondrocytes", "setting": "kartogenin added in place of SAG", "value": "effective for the proliferation of chondrocytes"}]}, {"molecule": "O=C1O[C@H]([C@@H](O)CO)C(O)=C1O", "note": "[ascorbic acid]", "values": [{"measurement": "effect on culture of chondrocytes in a serum-free culture medium", "setting": "Example 1: 50 μg/mL ascorbic acid added on the 18th day of culture", "value": "very effective"}, {"measurement": "effect on culture of chondrocytes in a serum-free culture medium", "setting": "Example 2 (subculture): 50 μg/mL ascorbic acid added on the 18th day of culture", "value": "very effective"}]}, {"molecule": "CNC1CCC(N(Cc2cccc(-c3ccncc3)c2)C(=O)c2sc3ccccc3c2Cl)CC1", "note": "(stereo not drawn) [SAG]", "values": [{"measurement": "culture of chondrocytes", "setting": "Comparative Example 1: primary culture as Example 1 but DMEM medium not containing SAG, first to 5th day, FIG. 3", "value": "chondrocytes could not be effectively cultured in the state without SAG"}, {"measurement": "culture of chondrocytes", "setting": "Comparative Example 2: subculture as Example 2 but DMEM medium not containing SAG, first to 13th day, FIG. 7", "value": "chondrocytes could not be effectively cultured in the state which does not contain SAG"}, {"measurement": "effect on proliferation of chondrocytes", "setting": "ITS+ 0.01 uM SAG, ITS+ 0.1 uM SAG, FIG. 14", "value": "an obvious effect can be obtained by combining SAG"}, {"measurement": "proliferation of cultured chondrocytes (number of cells)", "setting": "SAG 0.01 uM to 0.5 uM added along with ITS, FIG. 13", "value": "an increase in chondrocytes was almost equally observed"}, {"measurement": "proliferation of cultured chondrocytes (number of cells)", "setting": "SAG 0.05 uM, 0.01 uM or 0.5 uM in serum-free culture medium, no ITS, FIG. 12", "value": "an obvious difference which had been expected was not observed"}]}]}
